Laboratory results reported in ChEMBL document CHEMBL1201862, “PubChem BioAssay data set” (2004).
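96-well plates; 48 h exposure; 5 concentrations. Endpoints by linear interpolation between flanking doses. Not reached: highest tested concentration assigned. At the GI50, growth is halved.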 Activity calls are given as the source filed them. Rule as the data show it: active = GI50 up to about 1.1 µM and inactive = higher.

What was measured:
Experiment in all cases: growth of human tumour cells (NCI), 48 h
[1] = tested on: ACHN
[2] = tested on: MDA-N
[3] = tested on: HT-29
[4] = tested on: HL-60
[5] = tested on: OVCAR-5
[6] = tested on: HOP-62
[7] = tested on: PC-3
[8] = tested on: HCT-116
[9] = tested on: HCC 2998
[10] = tested on: SR
[11] = tested on: MOLT-4
[12] = tested on: TK-10
[13] = tested on: EKVX
[14] = tested on: HOP-92
[15] = tested on: SF-295
[16] = tested on: RXF 393
[17] = tested on: Malme-3M
[18] = tested on: OVCAR-3
[19] = tested on: NCI-H226
[20] = tested on: SNB-19

| SMILES | GI50 [1] | GI50 [2] | GI50 [3] | GI50 [4] | GI50 [5] | GI50 [6] | GI50 [7] | GI50 [8] | GI50 [9] | GI50 [10] | GI50 [11] | GI50 [12] | GI50 [13] | GI50 [14] | GI50 [15] | GI50 [16] | GI50 [17] | GI50 [18] | GI50 [19] | GI50 [20] |
| --- | --- | --- | --- | --- | --- | --- | --- | --- | --- | --- | --- | --- | --- | --- | --- | --- | --- | --- | --- | --- |
| COc1ccc(/C=C2\N/C(=N\N=C/C(O)C(O)C(O)C(O)CO)NC2=O)cc1 (stereo unspecified) | 32.2 µM (inactive) | 20.1 µM (inactive) | 71.8 µM (inactive) | > 100 µM (inactive) | > 100 µM (inactive) | 24.9 µM (inactive) | 26.2 µM (inactive) | 53.6 µM (inactive) | 11.6 µM (inactive) | 45.2 µM (inactive) | 8.63 µM (inactive) | 41.6 µM (inactive) | > 100 µM (inactive) | 16.1 µM (inactive) | 40.5 µM (inactive) | 56.5 µM (inactive) | 23.1 µM (inactive) | 18.6 µM (inactive) | 39.3 µM (inactive) |  |
| Cc1ccc2c(c1)C/C(=C\c1ccccc1C(=O)O)C2=O | > 100 µM (inactive) | > 100 µM (inactive) | 40.6 µM (inactive) | > 100 µM (inactive) | > 100 µM (inactive) | > 100 µM (inactive) | > 100 µM (inactive) | > 100 µM (inactive) | > 100 µM (inactive) | 46.3 µM (inactive) | > 100 µM (inactive) | > 100 µM (inactive) | > 100 µM (inactive) | > 100 µM (inactive) | > 100 µM (inactive) | > 100 µM (inactive) | > 100 µM (inactive) | > 100 µM (inactive) | 37 µM (inactive) | > 100 µM (inactive) |
| [O-][S+]1SC(=S)C2C=CC=CC21 (stereo unspecified) | > 100 µM (inactive) | 40.8 µM (inactive) | 45.3 µM (inactive) | 1.62 µM (inactive) | > 100 µM (inactive) |  | > 100 µM (inactive) | 85.5 µM (inactive) | > 100 µM (inactive) | > 100 µM (inactive) | > 100 µM (inactive) | > 100 µM (inactive) | 57.5 µM (inactive) | > 100 µM (inactive) | 88.9 µM (inactive) | > 100 µM (inactive) | 95.9 µM (inactive) | > 100 µM (inactive) | 59.6 µM (inactive) | 48.4 µM (inactive) |
| O=c1[nH]c2cc(C(F)(F)F)ccc2nc1CBr | 7.19 µM (inactive) | 12 µM (inactive) | 11.4 µM (inactive) | 2.69 µM (inactive) | 14.1 µM (inactive) | 8.05 µM (inactive) | 13.1 µM (inactive) | 13.5 µM (inactive) | 17.8 µM (inactive) | 4.85 µM (inactive) | 1.56 µM (inactive) | 13.9 µM (inactive) | 15.8 µM (inactive) | 2.79 µM (inactive) | 14.9 µM (inactive) | 12.4 µM (inactive) | 14 µM (inactive) | 9.77 µM (inactive) | 7.87 µM (inactive) | 15.5 µM (inactive) |
| CC1=CC[C@H](C(C)C)C(C(O)[C@@H](C)O[Si](c2ccccc2)(c2ccccc2)C(C)(C)C)C1=O (stereo partly specified) | 15.6 µM (inactive) | 21.2 µM (inactive) | 11.9 µM (inactive) | 16.9 µM (inactive) | 18.9 µM (inactive) | 20.9 µM (inactive) | 14 µM (inactive) | 10.6 µM (inactive) | 12.7 µM (inactive) | 14.5 µM (inactive) | 7.36 µM (inactive) | 15.7 µM (inactive) | 13.3 µM (inactive) | 20.8 µM (inactive) | 15 µM (inactive) | 13.5 µM (inactive) | 28.8 µM (inactive) | 17 µM (inactive) | 20 µM (inactive) | 17.3 µM (inactive) |
| Clc1ccc(C2NN=C3c4ccccc4OCC32)cc1 (stereo unspecified) | 14.9 µM (inactive) | 0.83 µM (active) | 3.13 µM (inactive) | 3.15 µM (inactive) | 8.87 µM (inactive) | 6.71 µM (inactive) | 4.11 µM (inactive) | 2.81 µM (inactive) | 2.62 µM (inactive) | 1.86 µM (inactive) | 4.43 µM (inactive) | 22.8 µM (inactive) | 3.59 µM (inactive) | 19.6 µM (inactive) | 2.11 µM (inactive) | 3.46 µM (inactive) | 3.15 µM (inactive) | 5.16 µM (inactive) | 2.92 µM (inactive) | 5.42 µM (inactive) |
| CCOP(=O)(OCC)C(N)Cc1ccc(OC)c(OC)c1 (stereo unspecified) | > 100 µM (inactive) | > 100 µM (inactive) | > 100 µM (inactive) | > 100 µM (inactive) | > 100 µM (inactive) |  | > 100 µM (inactive) | > 100 µM (inactive) | > 100 µM (inactive) | > 100 µM (inactive) | > 100 µM (inactive) | > 100 µM (inactive) |  | > 100 µM (inactive) | > 100 µM (inactive) | > 100 µM (inactive) | > 100 µM (inactive) | > 100 µM (inactive) | > 100 µM (inactive) | > 100 µM (inactive) |
